Measured values reported in ChEMBL document CHEMBL5380831, “Azolylpyrimidinediols as Novel Structural Scaffolds of DNA-Groove Binders against Intractable Acinetobacter baumannii” (J Med Chem, 2023).

Legend:
Type in all cases: functional
[1] = test system: Pseudomonas aeruginosa; assay: Antibacterial activity against Pseudomonas aeruginosa ATCC 27853 assessed as bacterial growth inhibition incubated for 24 hrs by broth microdilution method
[2] = test system: Staphylococcus aureus; assay: Antibacterial activity against methicillin-resistant Staphylococcus aureus assessed as bacterial growth inhibition incubated for 24 hrs by broth microdilution method
[3] = test system: Staphylococcus aureus; assay: Antibacterial activity against Staphylococcus aureus assessed as bacterial growth inhibition incubated for 24 hrs by broth microdilution method
[4] = test system: Acinetobacter baumannii; assay: Antibacterial activity against Acinetobacter baumannii assessed as bacterial growth inhibition incubated for 24 hrs by broth microdilution method
[5] = test system: Escherichia coli; assay: Antibacterial activity against Escherichia coli ATCC 25922 assessed as bacterial growth inhibition incubated for 24 hrs by broth microdilution method
[6] = test system: Escherichia coli; assay: Antibacterial activity against Escherichia coli assessed as bacterial growth inhibition incubated for 24 hrs by broth microdilution method
[7] = test system: Staphylococcus aureus; assay: Antibacterial activity against Staphylococcus aureus ATCC 25923 assessed as bacterial growth inhibition incubated for 24 hrs by broth microdilution method
[8] = test system: Staphylococcus aureus; assay: Antibacterial activity against Staphylococcus aureus ATCC 29213 assessed as bacterial growth inhibition incubated for 24 hrs by broth microdilution method
[9] = test system: Enterococcus faecalis; assay: Antibacterial activity against Enterococcus faecalis assessed as bacterial growth inhibition incubated for 24 hrs by broth microdilution method
[10] = test system: Klebsiella pneumoniae; assay: Antibacterial activity against Klebsiella pneumoniae assessed as bacterial growth inhibition incubated for 24 hrs by broth microdilution method
[11] = test system: Acinetobacter baumannii; assay: Induction of drug resistance against Acinetobacter baumannii assessed as fold increase in MIC after 20 passages measured for 20 days by sequential passaging method; conditions: time 20.0 day
[12] = test system: Pseudomonas aeruginosa; assay: Antibacterial activity against Pseudomonas aeruginosa assessed as bacterial growth inhibition incubated for 24 hrs by broth microdilution method

CCn1cc(C(=O)O)c(=O)c2cc(F)c(N3CCNCC3)cc21 [NORFLOXACIN]
50 µM: MIC [2]
1 µM: MIC [12]
31: fold change (FC) [11]
6 µM: MIC [4] | MIC [8] | MIC [10]
3 µM: MIC [1] | MIC [3] | MIC [5]
100 µM: MIC [9]
2 µM: MIC [7]
25 µM: MIC [6]

CCN(CC)c1nccc(-n2cncn2)n1
587 µM: MIC [1] | MIC [5] | MIC [6] | MIC [7] | MIC [8] | MIC [9]
1170 µM: MIC [2] | MIC [3] | MIC [4] | MIC [10] | MIC [12]

CC(=O)N1CCN(c2nccc(-n3cncn3)n2)CC1
469 µM: MIC [2] | MIC [12]
4 µM: MIC [5] | MIC [10]
937 µM: MIC [1] | MIC [3] | MIC [4] | MIC [6] | MIC [7] | MIC [8] | MIC [9]

Cc1cc2ncn(-c3ccnc(N(CCO)CCO)n3)c2cc1C
196 µM: MIC [6] | MIC [9]
391 µM: MIC [2] | MIC [4] | MIC [7] | MIC [10]
98 µM: MIC [1] | MIC [3] | MIC [12]
782 µM: MIC [5] | MIC [8]

CC(C)N(c1nccc(-n2cncn2)n1)C(C)C
1040 µM: MIC [3] | MIC [4] | MIC [5] | MIC [6] | MIC [8] | MIC [9] | MIC [10]
520 µM: MIC [1] | MIC [2] | MIC [7] | MIC [12]

CC(C)c1nccn1-c1nccc(N(CCO)CCO)n1
1790 µM: MIC [9]
440 µM: MIC [4] | MIC [7] | MIC [12]
1760 µM: MIC [2] | MIC [5]
879 µM: MIC [1] | MIC [3] | MIC [6] | MIC [8] | MIC [10]

O=S(=O)(c1ccc(F)cc1)N1CCN(c2nccc(-n3cncn3)n2)CC1
658 µM: MIC [1] | MIC [2] | MIC [3] | MIC [5] | MIC [6] | MIC [8] | MIC [9] | MIC [10]
329 µM: MIC [12]
165 µM: MIC [4] | MIC [7]

Cc1cn(-c2ccnc(N(CCO)CCO)n2)c(C)n1
924 µM: MIC [1] | MIC [2] | MIC [3] | MIC [5] | MIC [6] | MIC [7] | MIC [8] | MIC [9] | MIC [12]
462 µM: MIC [4]
934 µM: MIC [10]

Brc1ccc2c3ccccc3n(-c3nccc(-n4cncn4)n3)c2c1
656 µM: MIC [1] | MIC [2] | MIC [4] | MIC [5] | MIC [6] | MIC [8] | MIC [10]
1 µM: MIC [12]
164 µM: MIC [9]
5 µM: MIC [3]
1660 µM: MIC [7]

O=C(c1ccccc1)N1CCN(c2nccc(-n3cncn3)n2)CC1
764 µM: MIC [1] | MIC [2] | MIC [3] | MIC [4] | MIC [6] | MIC [7] | MIC [8] | MIC [9]
382 µM: MIC [12]
6 µM: MIC [5] | MIC [10]

O=C(CCl)N1CCN(c2nccc(-n3cncn3)n2)CC1
208 µM: MIC [1] | MIC [4] | MIC [6] | MIC [7]
104 µM: MIC [2] | MIC [5] | MIC [8] | MIC [10] | MIC [12]
417 µM: MIC [3] | MIC [9]

CN(C)c1nccc(-n2cncn2)n1
337 µM: MIC [12]
673 µM: MIC [5]
1350 µM: MIC [1] | MIC [2] | MIC [3] | MIC [4] | MIC [6] | MIC [7] | MIC [8] | MIC [9] | MIC [10]

Cc1cn(-c2nccc(N(CCO)CCO)n2)c(C)n1
924 µM: MIC [1] | MIC [2] | MIC [3] | MIC [4] | MIC [5] | MIC [6] | MIC [7] | MIC [8] | MIC [10]
58 µM: MIC [9]
462 µM: MIC [12]

O=C(C(Cl)Cl)N1CCN(c2nccc(-n3cncn3)n2)CC1
353 µM: MIC [5] | MIC [10]
88 µM: MIC [12]
705 µM: MIC [1] | MIC [2] | MIC [3] | MIC [4] | MIC [6] | MIC [7] | MIC [8] | MIC [9]

O=C1c2cccc3c(N4CCN(c5nccc(-n6cncn6)n5)CC4)ccc(c23)C(=O)N1C(CO)CO
512 µM: MIC [1] | MIC [2] | MIC [3] | MIC [4] | MIC [6] | MIC [8] | MIC [12]
255 µM: MIC [5]
256 µM: MIC [9]
226 µM: MIC [10]
64 µM: MIC [7]

O=C(CCCCl)N1CCN(c2nccc(-n3cncn3)n2)CC1
382 µM: MIC [1] | MIC [2] | MIC [4] | MIC [5] | MIC [6] | MIC [7] | MIC [9] | MIC [10]
764 µM: MIC [3] | MIC [8] | MIC [12]

CO/N=C(/C(=O)N1CCN(c2nccc(-n3cncn3)n2)CC1)c1csc(N)n1
147 µM: MIC [5] | MIC [10]
587 µM: MIC [7] | MIC [8] | MIC [12]
294 µM: MIC [1] | MIC [2] | MIC [3] | MIC [4] | MIC [6] | MIC [9]

Nc1ccc(S(=O)(=O)Nc2ncccn2)cc1 [SULFADIAZINE]
64 µM: MIC [1] | MIC [4] | MIC [5] | MIC [6] | MIC [9]
54 µM: MIC [8]
129 µM: MIC [7]
256 µM: MIC [2] | MIC [3]
1020 µM: MIC [10]
31 µM: MIC [12]

O=c1ccc2c(CN3CCN(c4nccc(-n5cncn5)n4)CC3)cc(O)cc2o1
633 µM: MIC [5]
316 µM: MIC [2] | MIC [3] | MIC [7] | MIC [9] | MIC [12]
158 µM: MIC [4]
632 µM: MIC [1] | MIC [6] | MIC [8] | MIC [10]
